From PubChem BioAssay AID1963972 (Molecular Pharmacology Branch, DTP, NCI, 2024)

Test system: 945468-187-T-J2-PDC spheroids viability
Test: Anticancer human tumor 945468-187-T-J2-PDC patient-derived rectal carcinoma cell line growth inhibition [PI3K]
Conditions: spheroids with HUVEC and MSC; for IC50: curve of first compound; for viability, T/C: stronger effect = lower value
How it was run: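 Combination activity was assessed by viability in multicellular tumor spheroids carrying HUVEC and MSC components. Agents were tested with PI3K inhibitors from a Cmax-based top dose (or 10 microM) downward in half-log increments.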

[1] = second compound 0.00316 µM, first compound 0.0316 µM
[2] = second compound 0.00316 µM, first compound 0.1 µM
[3] = second compound 0.00316 µM, first compound 0.316 µM
[4] = second compound 0.00316 µM, first compound 1 µM
[5] = second compound 0.00316 µM, first compound 3.16 µM
[6] = second compound 0.00316 µM, first compound 10 µM
[7] = second compound 0.01 µM, first compound 0.0316 µM
[8] = second compound 0.01 µM, first compound 0.1 µM
[9] = second compound 0.01 µM, first compound 0.316 µM
[10] = second compound 0.01 µM, first compound 1 µM
[11] = second compound 0.01 µM, first compound 3.16 µM
[12] = second compound 0.01 µM, first compound 10 µM
[13] = second compound 0.0316 µM, first compound 0.0316 µM
[14] = second compound 0.0316 µM, first compound 0.1 µM
[15] = second compound 0.0316 µM, first compound 0.316 µM
[16] = second compound 0.0316 µM, first compound 1 µM
[17] = second compound 0.0316 µM, first compound 3.16 µM
[18] = second compound 0.0316 µM, first compound 10 µM
[19] = second compound 0.1 µM, first compound 0.0316 µM
[20] = second compound 0.1 µM, first compound 0.1 µM
[21] = second compound 0.1 µM, first compound 0.316 µM
[22] = second compound 0.1 µM, first compound 1 µM
[23] = second compound 0.1 µM, first compound 3.16 µM
[24] = second compound 0.1 µM, first compound 10 µM
[25] = second compound 0.316 µM, first compound 0.0316 µM
[26] = second compound 0.316 µM, first compound 0.1 µM
[27] = second compound 0.316 µM, first compound 0.316 µM
[28] = second compound 0.316 µM, first compound 1 µM
[29] = second compound 0.316 µM, first compound 3.16 µM
[30] = second compound 0.316 µM, first compound 10 µM
[31] = second compound 1 µM, first compound 0.0316 µM
[32] = second compound 1 µM, first compound 0.1 µM
[33] = second compound 1 µM, first compound 0.316 µM
[34] = second compound 1 µM, first compound 1 µM
[35] = second compound 1 µM, first compound 3.16 µM
[36] = second compound 1 µM, first compound 10 µM
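Also: spheroids exposed to compounds for seven days before reading.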

CC1(C)CCC(CN2CCN(c3ccc(C(=O)NS(=O)(=O)c4ccc(NCC5CCOCC5)c([N+](=O)[O-])c4)c(Oc4cnc5[nH]ccc5c4)c3)CC2)=C(c2ccc(Cl)cc2)C1 + COc1c(OCCCN2CCOCC2)ccc2c3n(c(=NC(=O)c4cnc(N)nc4)nc12)CCN3
IC50 (second compound 0.00316 µM): > 10 µM
IC50 (second compound 0.01 µM): > 10 µM
IC50 (second compound 0.0316 µM): > 10 µM
IC50 (second compound 0.1 µM): > 10 µM
IC50 (second compound 0.316 µM): < 0.0316 µM
IC50 (second compound 1 µM): < 0.0316 µM
viability, T/C [1]: 87.8%
viability, T/C [2]: 87.4%
viability, T/C [3]: 94.8%
viability, T/C [4]: 110%
viability, T/C [5]: 116%
viability, T/C [6]: 74.1%
viability, T/C [7]: 96.8%
viability, T/C [8]: 100%
viability, T/C [9]: 90.5%
viability, T/C [10]: 89.6%
viability, T/C [11]: 95.7%
viability, T/C [12]: 90.3%
viability, T/C [13]: 99.9%
viability, T/C [14]: 103%
viability, T/C [15]: 82.9%
viability, T/C [16]: 115%
viability, T/C [17]: 97%
viability, T/C [18]: 105%
viability, T/C [19]: 87.7%
viability, T/C [20]: 75%
viability, T/C [21]: 100%
viability, T/C [22]: 90.5%
viability, T/C [23]: 84.5%
viability, T/C [24]: 81.6%
viability, T/C [25]: 31.3%
viability, T/C [26]: 36.7%
viability, T/C [27]: 47.7%
viability, T/C [28]: 38.6%
viability, T/C [29]: 33%
viability, T/C [30]: 36.7%
viability, T/C [31]: 19.9%
viability, T/C [32]: 21.4%
viability, T/C [33]: 19.4%
viability, T/C [34]: 19.9%
viability, T/C [35]: 22.4%
viability, T/C [36]: 22.6%

C[C@@H](NC(=O)c1ncnc(N)c1Cl)c1ncc(C(=O)Nc2cc(C(F)(F)F)c(Cl)cn2)s1 + COc1c(OCCCN2CCOCC2)ccc2c3n(c(=NC(=O)c4cnc(N)nc4)nc12)CCN3
IC50 (second compound 0.00316 µM): > 10 µM
IC50 (second compound 0.01 µM): > 10 µM
IC50 (second compound 0.0316 µM): > 10 µM
IC50 (second compound 0.1 µM): > 10 µM
IC50 (second compound 0.316 µM): < 0.0316 µM
IC50 (second compound 1 µM): < 0.0316 µM
viability, T/C [1]: 109%
viability, T/C [2]: 115%
viability, T/C [3]: 116%
viability, T/C [4]: 113%
viability, T/C [5]: 99.3%
viability, T/C [6]: 102%
viability, T/C [7]: 133%
viability, T/C [8]: 119%
viability, T/C [9]: 126%
viability, T/C [10]: 119%
viability, T/C [11]: 112%
viability, T/C [12]: 125%
viability, T/C [13]: 108%
viability, T/C [14]: 94.6%
viability, T/C [15]: 111%
viability, T/C [16]: 142%
viability, T/C [17]: 96%
viability, T/C [18]: 122%
viability, T/C [19]: 94%
viability, T/C [20]: 102%
viability, T/C [21]: 94.9%
viability, T/C [22]: 95%
viability, T/C [23]: 92.7%
viability, T/C [24]: 92%
viability, T/C [25]: 46%
viability, T/C [26]: 49.3%
viability, T/C [27]: 50.9%
viability, T/C [28]: 57.7%
viability, T/C [29]: 53.5%
viability, T/C [30]: 63.9%
viability, T/C [31]: 24.4%
viability, T/C [32]: 26.1%
viability, T/C [33]: 25.6%
viability, T/C [34]: 22%
viability, T/C [35]: 23.5%
viability, T/C [36]: 26.8%
